Results on one molecule are retold here after patent US20220265671A1, “METHOD FOR TREATING STROKE BY USING TRICYCLIC DERIVATIVE” (Jeil Pharmaceutical Co., Ltd., priority 2019, published 2022).

The test system of data set [1] is healthy male volunteers. The experiment in a line: Phase 1 clinical test, single dose escalation: adverse reactions. The format is in vivo, human. The method, then:
In order to evaluate the safety at the time of a single dose of a test drug, a phased clinical test was conducted as determined by the Data Safety Monitoring Board (DSMB) on 40 subjects (8 subjects per cohort: 6 subjects in test group and 2 subjects in placebo group) in 5 dose groups (35 mg, 75 mg, 150 mg, 300 mg, 600 mg) selected from healthy male volunteers in Korea.
A test drug or placebo was mixed with an infusion solution by intravenous injection therapy, and then administered using an infusion pump for 30 minutes (±5 minutes).
Of the 40 test subjects who were administered the clinical test drug, a total of 6 test subjects developed 7 adverse reactions. There were no reported adverse reactions in the placebo-administered group. Of the 7 adverse reactions, 1 case of “dizziness” was a moderate symptom in the test subjects who were administered 600 mg, and all other adverse reactions corresponded to a mild symptom. The subjects were spontaneously recovered from all the adverse reactions without any sequelae. […] Accordingly, it was determined that the drug tolerability of a single dose of the test drug was good in the test dose range.

The test system of data set [2] is healthy male volunteers. Put plainly: Phase 1 clinical test, multi dose escalation: adverse reactions. The class given is in vivo, human. How it is done: In order to evaluate the safety at the time of a repeated dose of a test drug, a phased clinical test was conducted as determined by the Data Safety Monitoring Board (DSMB) on 24 subjects (8 subjects per cohort: 6 subjects in test group and 2 subjects in placebo group) in 3 dose groups (repeated administration of 150 mg, 300 mg, and 450 mg seven times at intervals of 12 hours) selected from healthy male volunteers in Korea.
A test drug or placebo was mixed with an infusion solution by intravenous injection therapy, and then administered using an infusion pump for 60 minutes (±10 minutes), and the same was repeatedly administered seven times at intervals of 12 hours.
Of the 24 test subjects who were administered the clinical test drug, a total of 7 test subjects developed 12 adverse reactions, and among them, 10 cases were confirmed to be adverse drug reactions. One case (one person) of an adverse reaction occurred in the placebo-administered group. […] Accordingly, it was determined that the tolerability of about 150 to 450 mg of the test drug during the repeated administration at intervals of 12 hours was good.

Data set [3] can be described thus: Population pharmacokinetics model (NONMEM) built on single dose phase 1 data. Also on record: species or system human. How it is done:
A pharmacokinetics model for administration of a test drug was established for integration with a quantitative pharmacokinetics model for simulating the efficacy and safety of test drugs, as well as simulating the pharmacokinetics of future doses and dosage regimens. The simulation was performed by constructing a pharmacokinetics model based on pharmacokinetics information and demographic information of a total of 30 test subjects who were administered 35 mg, 75 mg, 150 mg, 300 mg, and 600 mg among the test subjects who participated in the single dose clinical test of test drug phase 1. The analysis was performed by a non-linear mixed effect modeling method using NONMEM® (version 7.2; ICON Development Solutions, Ellicott City, Md., USA).
The population pharmacokinetics model was constructed in the order of structural model construction, covariate analysis, and model selection. As a first step, a basic structural model was constructed, and as a step of establishing a model capable of best explaining the change in drug concentration over time, the most pharmacologically and statistically suitable model was selected by performing a search in the order of a 1-compartment model, a 2-compartment model, and a 3-compartment model. As the next step, covariate analysis was performed, and the effects of age, height, body weight, serum creatine, BUN, albumin, AST, and ALT concentrations which are part of the demographic information on pharmacokinetics were quantitatively evaluated. Finally, model selection (internal validation) was performed, a simulation of the established model was performed, and this was evaluated by a visual predictive check (VPC), which is a schematic evaluation method.
The pattern of time-blood concentration changes of the test drug is best explained by a 3-compartment model with 1st order elimination. No significant covariate was found in the covariate analysis utilizing age, height, body weight, serum creatine, BUN, albumin, AST, and ALT concentrations.

[4] abbreviates: repeated dose 150-450 mg, seven times at 12 h intervals.
[5] abbreviates: 3-compartment model, structural model.
Setting [6] is: interindividual variability, predicted value.

With `CCOc1cc(CN2CCOCC2)cc2[nH]c(=O)c3c(c12)NCCC3.Cl.Cl` [Test drug, 10-ethoxy-8-(morpholinomethyl)-1,2,3,4-tetrahydrobenzo[h][1,6]naphthyridin-5(6H)-one dihydrochloride], the “number of adverse reactions” value in the data set with healthy male volunteers [1] (single IV dose 35-600 mg over 30 minutes, 40 test subjects) is 7. For the same molecule, the “test subjects who developed adverse reactions” value in the data set on healthy male volunteers [1] (single IV dose 35-600 mg over 30 minutes, of the 40 test subjects, no adverse reactions in placebo group) is 6. Besides, the “moderate adverse reactions (dizziness), cases” value in the data set with healthy male volunteers [1] (single dose 600 mg, all other adverse reactions mild) came out at 1. Also, in the data set with healthy male volunteers [1] (single dose 35-600 mg, entire clinical test), the significant adverse reactions result was “No significant adverse reactions occurred”. Also, in the data set on healthy male volunteers [1] (test dose range 35-600 mg IV), the “drug tolerability of a single dose” value is given as “good”. Moreover, the “test subjects who developed adverse reactions” value in the data set on healthy male volunteers [2] (150, 300, 450 mg IV over 60 minutes, seven times at intervals of 12 hours, of the 24 test subjects, includes one person in placebo group) amounted to 7. Further, the “tolerability during repeated administration” value in the data set on healthy male volunteers [2] (about 150 to 450 mg at intervals of 12 hours) is on record as “good”. Also, in the data set on healthy male volunteers [2] (repeated dose 150-450 mg, entire clinical test), the significant adverse reactions entry is “no significant adverse reactions occurred”. Besides, in the data set with healthy male volunteers [2] (setting [4]), the “adverse reactions confirmed to be adverse drug reactions, cases” value was 10 and the “severity of adverse reactions” value is recorded as “mild”. For the same molecule, the “number of adverse reactions” value with healthy male volunteers [2] (repeated dose 150-450 mg, seven times at 12 h intervals, 24 test subjects, one case in placebo group) stood at 12. Moreover, in data set [3] (setting [5]), the “1st Clearance of peripheral compartment (Q1), predicted value” is listed as 162 L/h; the “1st Volume of peripheral compartment (V2), predicted value” was 58.5 L; the “2nd Clearance of peripheral compartment (Q2), predicted value” was 2.66 L/h; the “2nd Volume of peripheral compartment (V3), predicted value” is given as 8.81 L. Also, the “Volume of central compartment (V1), predicted value” in data set [3] (setting [5]) is recorded as 15.2 L. Further, the “Clearance of central compartment (CL), predicted value” in data set [3] (3-compartment model, structural model, 30 subjects, 35-600 mg IV) was 32.0 L/h. Besides, in data set [3] (setting [6]), the “Interindividual model CL” value is 43.8%, the “Interindividual model Q1” value is on record as 41.7%, the “Interindividual model Q2” value is recorded as 28.1% and the “Interindividual model V1” value is given as 52.4%. Moreover, in data set [3] (setting [6]), the “Interindividual model V2” value was 20.2% and the “Interindividual model V3” value is listed as 64.1%.
